Results from patent publication US10835461B2, “Bio-active material composite, preparing method thereof and cosmetic composition containing the same” (priority 2015, dated 2020).

Assay: Stability of pure vitamin C and YHC-Vc in aqueous solution (color, pH, vitamin C content) at 50° C. in airtight container for four weeks
Format: physicochemical

- pH (In 4 weeks, 50° C., airtight container): 2.52
- pH condition maintained (at 50° C. for 4 weeks): ~2
- remaining amount of vitamin C (in four weeks at 50° C. in airtight container): about 51%
SMILES: O=C1O[C@H]([C@@H](O)CO)C(O)=C1O [vitamin C, ascorbic acid]
- change of color (50° C., airtight glass container, four weeks, 3.0 wt % vitamin C solution or 10.0 wt % composite dispersion): abrupt change of color in the order from clear (colorless) to yellow, orange, and then red
